12 compounds from patent US10370343B2, “[6,6] Fused bicyclic HDAC8 inhibitors” (FORMA Therapeutics, Inc., priority 2015, dated 2019) can be followed below.

Structures are written as SMILES. pIC50: −log10 of the molar value.

Experiment [1] deals with T1, Full length human recombinant HDAC8 protein (Homo sapiens, UniProt Q9BY41).
T1 construct: Full length human recombinant HDAC8 protein was expressed in baculoviral system; made in house
T1 sequence (Q9BY41 1-377): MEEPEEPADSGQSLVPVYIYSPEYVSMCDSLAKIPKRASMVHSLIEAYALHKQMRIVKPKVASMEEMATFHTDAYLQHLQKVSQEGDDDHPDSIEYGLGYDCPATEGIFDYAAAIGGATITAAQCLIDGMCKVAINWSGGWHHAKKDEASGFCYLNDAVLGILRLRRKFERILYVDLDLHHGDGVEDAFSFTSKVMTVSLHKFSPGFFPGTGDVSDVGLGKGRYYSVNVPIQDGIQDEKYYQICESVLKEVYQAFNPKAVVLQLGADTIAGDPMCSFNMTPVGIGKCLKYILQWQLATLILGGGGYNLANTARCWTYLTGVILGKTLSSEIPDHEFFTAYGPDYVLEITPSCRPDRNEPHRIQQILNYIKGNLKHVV
Description: In vitro histone deacetylase assay: enzymatic HDAC8 electrophoretic mobility shift assay. Type of experiment: biochemical. The note with it: electrophoretic mobility shift assay; enzyme 1 nM; 2 μM fluorescently labeled peptide substrate RHKK(Ac)-NH2; 25° C.; 12 concentrations; read-out: HDAC8 IC50.

The target of experiment [2] is T2, Recombinant N-terminal GST tag full-length human HDAC8 (Homo sapiens, UniProt Q9BY41).
T2 construct: Recombinant N-terminal GST tag full-length human HDAC8; purchased SignalChem H90-30G-1000; host or cells: baculovirus in Sf9 insect cells
T2 sequence (Q9BY41 1-377): T1 sequence (Q9BY41 1-377)
The experiment in a line: HDAC8 probe binding assay, time resolved fluorescence (TRF) format. The note with it: compounds grouped by IC50 range (Table 2). An outline of the steps: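 IC50 values come from four-parameter logistic fits of percent inhibition, scaled between DMSO (high) and no-enzyme (low) controls. Time-resolved fluorescence (ex 340, em 485/535 nm) was read after 16 h at room temperature. Enzyme was Sf9-expressed full-length human HDAC8 with an N-terminal GST tag, in a probe-binding format.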

`O=C(NO)c1ccc2c(c1)N(Cc1c(F)cccc1C(F)(F)F)C(=O)CO2` [Compound I-275, 4-(2-fluoro-6-(trifluoromethyl)benzyl)-N-hydroxy-3-oxo-3,4-dihydro-2H-benzo[b][1,4]oxazine-6-carboxamide]: the pIC50 in experiment [1] and in experiment [2] was 7.00 to 7.60 each time.

Regarding `O=C(NO)c1ccc2c(c1)N(Cc1cc(F)cc(C(F)(F)F)c1)C(=O)CO2` [Compound I-276, 4-(3-fluoro-5-(trifluoromethyl)benzyl)-N-hydroxy-3-oxo-3,4-dihydro-2H-benzo[b][1,4]oxazine-6-carboxamide], the pIC50 in experiment [1] and in experiment [2] was 7.00 to 7.60 throughout.

Take `O=C(NO)c1ccc2c(c1)N(Cc1ccc(F)cc1C(F)(F)F)C(=O)CO2` [Compound I-277, 4-(4-fluoro-2-(trifluoromethyl)benzyl)-N-hydroxy-3-oxo-3,4-dihydro-2H-benzo[b][1,4]oxazine-6-carboxamide]: the pIC50 in experiment [1] was 6.00 to 7.00; in experiment [2], 7.00 to 7.60.

As to `Cn1c(CN2C(=O)COc3ccc(C(=O)NO)cc32)nc2ccc(Cl)cc21` [Compound I-278, 4-((6-chloro-1-methyl-1H-benzo[d]imidazol-2-yl)methyl)-N-hydroxy-3-oxo-3,4-dihydro-2H-benzo[b][1,4]oxazine-6-carboxamide], the pIC50 in experiment [1] and in experiment [2] was 7.00 to 7.60 in each case.

With `Cc1ccc(CN2C(=O)COc3ccc(C(=O)NO)cc32)c(C)c1` [Compound I-280, 4-(2,4-dimethylbenzyl)-N-hydroxy-3-oxo-3,4-dihydro-2H-benzo[b][1,4]oxazine-6-carboxamide], the pIC50 was 7.00 to 7.60 in experiment [1] and no less than 7.60 in experiment [2].

Consider `CC(C)n1c(CN2C(=O)COc3ccc(C(=O)NO)cc32)nc2ccccc21` [Compound I-281, N-hydroxy-4-((1-isopropyl-1H-benzo[d]imidazol-2-yl)methyl)-3-oxo-3,4-dihydro-2H-benzo[b][1,4]oxazine-6-carboxamide], for which the pIC50 in experiment [1] is 6.00 to 7.00; in experiment [2] it was less than 6.00.

Consider `O=C(NO)c1ccc2c(c1)N(Cc1nc3cccnc3n1Cc1ccccc1)C(=O)CO2` [Compound I-284, 4-((3-benzyl-3H-imidazo[4,5-b]pyridin-2-yl)methyl)-N-hydroxy-3-oxo-3,4-dihydro-2H-benzo[b][1,4]oxazine-6-carboxamide], for which the pIC50 in experiment [1] and in experiment [2] was 7.00 to 7.60 each time.

On to `COc1ccc2oc(CN3C(=O)COc4ccc(C(=O)NO)cc43)nc2c1` [Compound I-285, N-hydroxy-4-((5-methoxybenzo[d]oxazol-2-yl)methyl)-3-oxo-3,4-dihydro-2H-benzo[b][1,4]oxazine-6-carboxamide], for which the pIC50 in experiment [1] was greater than 7.60; in experiment [2] it was no less than 7.60.

As for `Cc1ccc2oc(CN3C(=O)COc4ccc(C(=O)NO)cc43)nc2c1` [Compound I-286, N-hydroxy-4-((5-methylbenzo[d]oxazol-2-yl)methyl)-3-oxo-3,4-dihydro-2H-benzo[b][1,4]oxazine-6-carboxamide], the pIC50 in experiment [1] and in experiment [2] was 7.00 to 7.60 each time.

For `O=C(NO)c1ccc2c(c1)N(Cc1nc3ccccc3o1)C(=O)CO2` [Compound I-288, 4-(benzo[d]oxazol-2-ylmethyl)-N-hydroxy-3-oxo-3,4-dihydro-2H-benzo[b][1,4]oxazine-6-carboxamide], the figures for the pIC50 in experiment [1] and in experiment [2] were greater than 7.60 and no less than 7.60, respectively.

As to `O=C(NO)c1ccc2c(c1)N(Cc1nc3cc(Cl)ccc3s1)C(=O)CO2` [Compound I-290, 4-((5-chlorobenzo[d]thiazol-2-yl)methyl)-N-hydroxy-3-oxo-3,4-dihydro-2H-benzo[b][1,4]oxazine-6-carboxamide], the values for the pIC50 in experiment [1] and in experiment [2] were greater than 7.60 and no less than 7.60, respectively.

Take `Cc1ccc2nc(CN3C(=O)C(C)(C)Oc4ccc(C(=O)NO)cc43)oc2c1` [Compound I-292, N-hydroxy-2,2-dimethyl-4-((6-methylbenzo[d]oxazol-2-yl)methyl)-3-oxo-3,4-dihydro-2H-benzo[b][1,4]oxazine-6-carboxamide]: the negative logarithm of the IC50 (pIC50) in experiment [1] and in experiment [2] was 7.00 to 7.60 each time.

One may read the pIC50 as −log10 of the IC50, conventionally taken in molar units.
